Values belong to the compound of their own block, whether it stands above or below them.
Key:
[1] = system: A2780 cells; test: In-vitro cell proliferation assay (SRB), A2780 cells; assay type: cell-based; settings: Homo sapiens, A2780, 72 h, A2780 cells, 72 hours, SRB; read-out: A2780 IC50;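 note: viable cell number read as SRB absorbance, background from media-only wells subtracted, IC50 interpolated from percent inhibition at two bracketing compound concentrations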
[2] = molecular target: NAMPT (Homo sapiens (Human), UniProt P43490); test: NAMPT biochemical inhibition assay (NMN quantified by mass spectrometry); settings: NAMPT biochemical inhibition; read-out: Biochem IC50
NAMPT, sequence (P43490 whole entry): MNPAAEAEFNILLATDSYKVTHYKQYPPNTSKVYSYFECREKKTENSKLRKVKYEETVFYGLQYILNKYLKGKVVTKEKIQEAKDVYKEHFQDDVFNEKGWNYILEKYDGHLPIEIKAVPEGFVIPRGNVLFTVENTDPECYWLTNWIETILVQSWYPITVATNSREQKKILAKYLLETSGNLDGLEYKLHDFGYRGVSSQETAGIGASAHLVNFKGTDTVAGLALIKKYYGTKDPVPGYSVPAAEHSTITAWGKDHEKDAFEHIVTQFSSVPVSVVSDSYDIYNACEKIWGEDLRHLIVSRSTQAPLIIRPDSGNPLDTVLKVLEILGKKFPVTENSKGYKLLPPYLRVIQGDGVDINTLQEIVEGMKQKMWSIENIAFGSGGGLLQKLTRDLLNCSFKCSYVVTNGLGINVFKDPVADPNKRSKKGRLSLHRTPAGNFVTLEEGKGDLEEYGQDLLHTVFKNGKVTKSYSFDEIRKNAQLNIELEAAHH

SMILES: COCCC1CCCN(S(=O)(=O)c2ccc(NC(=O)NCc3cccnc3)cc2)C1 (stereo not shown) [3-{4-[3-(2-methoxyethyl)piperidine-1-sulfonyl]phenyl}-1-(pyridin-3-ylmethyl)urea]
IC50 [1]: 89 nM
IC50 [2]: 4 nM

SMILES: O=C(NCc1cccnc1)Nc1ccc(S(=O)(=O)c2ccnc(N3CCOCC3)c2Cl)cc1 [3-{4-[3-chloro-2-(morpholin-4-yl)pyridine-4-sulfonyl]phenyl}-1-(pyridin-3-ylmethyl)urea]
IC50 [1]: 14.2 nM
IC50 [2]: 4 nM

SMILES: Cc1ccc(C)c(N2CCN(S(=O)(=O)c3ccc(NC(=O)NCc4cccnc4)cc3)CC2)c1 [3-{4-[4-(2,5-dimethylphenyl)piperazine-1-sulfonyl]phenyl}-1-(pyridin-3-ylmethyl)urea]
IC50 [1]: 101 nM
IC50 [2]: 5 nM

SMILES: CCOc1ccccc1N1CCN(S(=O)(=O)c2ccc(NC(=O)NCc3cccnc3)cc2)CC1 [3-{4-[4-(2-ethoxyphenyl)piperazine-1-sulfonyl]phenyl]-1-(pyridin-3-ylmethyl)urea]
IC50 [1]: 6 nM
IC50 [2]: 2 nM

SMILES: COc1ccccc1N1CCN(S(=O)(=O)c2ccc(NC(=O)NCc3cccnc3)cc2)CC1 [3-{4-[4-(2-methoxyphenyl)piperazine-1-sulfonyl]phenyl}-1-(pyridin-3-ylmethyl)urea]
IC50 [1]: 35 nM
IC50 [2]: 7 nM

SMILES: Cc1ccccc1N1CCN(S(=O)(=O)c2ccc(NC(=O)NCc3cccnc3)cc2)CC1 [3-{4-[4-(2-methylphenyl)piperazine-1-sulfonyl]phenyl}-1-(pyridin-3-ylmethyl)urea]
IC50 [1]: 106 nM
IC50 [2]: 6 nM

SMILES: O=C(NCc1cccnc1)Nc1ccc(S(=O)(=O)N2CCN(c3c(Cl)cncc3Cl)CC2)cc1 [3-{4-[4-(3,5-dichloropyridin-4-yl)piperazine-1-sulfonyl]phenyl}-1-(pyridin-3-ylmethyl)urea]
IC50 [1]: 29 nM
IC50 [2]: 3 nM

SMILES: O=C(NCc1cccnc1)Nc1ccc(S(=O)(=O)N2CCC(O)(c3cccc(Cl)c3)CC2)cc1 [3-{4-[4-(3-chlorophenyl)-4-hydroxypiperidine-1-sulfonyl]phenyl}-1-(pyridin-3-ylmethyl)urea]
IC50 [1]: 956 nM
IC50 [2]: 5.2 nM

SMILES: O=C(NCc1cccnc1)Nc1ccc(S(=O)(=O)N2CCN(c3ncccc3Cl)CC2)cc1 [3-{4-[4-(3-chloropyridin-2-yl)piperazine-1-sulfonyl]phenyl}-1-(pyridin-3-ylmethyl)urea]
IC50 [1]: 18 nM
IC50 [2]: 1 nM

SMILES: COc1ccc(Cl)cc1N1CCN(S(=O)(=O)c2ccc(NC(=O)NCc3cccnc3)cc2)CC1 [3-{4-[4-(5-chloro-2-methoxyphenyl)piperazine-1-sulfonyl]phenyl}-1-(pyridin-3-ylmethyl)urea]
IC50 [1]: 50 nM
IC50 [2]: 2 nM

SMILES: Cc1ccc(Cl)cc1N1CCN(S(=O)(=O)c2ccc(NC(=O)NCc3cccnc3)cc2)CC1 [3-{4-[4-(5-chloro-2-methylphenyl)piperazine-1-sulfonyl]phenyl}-1-(pyridin-3-ylmethyl)urea]
IC50 [1]: 162 nM
IC50 [2]: 2 nM

SMILES: CCN(CC)C1CCN(S(=O)(=O)c2ccc(NC(=O)NCc3cccnc3)cc2)CC1 [3-{4-[4-(diethylamino)piperidine-1-sulfonyl]phenyl}-1-(pyridin-3-ylmethyl)urea]
IC50 [1]: 14 nM
IC50 [2]: 5 nM

SMILES: CCCN(CCC)C1CCN(S(=O)(=O)c2ccc(NC(=O)NCc3cccnc3)cc2)CC1 [3-{4-[4-(dipropylamino)piperidine-1-sulfonyl]phenyl}-1-(pyridin-3-ylmethyl)urea]
IC50 [1]: 3 nM
IC50 [2]: 4 nM

SMILES: COCC1CCN(S(=O)(=O)c2ccc(NC(=O)NCc3cccnc3)cc2)CC1 [3-{4-[4-(methoxymethyl)piperidine-1-sulfonyl]phenyl}-1-(pyridin-3-ylmethyl)urea]
IC50 [1]: 130 nM
IC50 [2]: 22 nM

SMILES: CN(C)c1ccc(S(=O)(=O)c2ccc(NC(=O)NCc3cccnc3)cc2)cn1 [3-{4-[6-(dimethylamino)pyridine-3-sulfonyl]phenyl}-1-(pyridin-3-ylmethyl)urea]
IC50 [1]: 74.9 nM
IC50 [2]: 3 nM

SMILES: CC(C)(C)CNS(=O)(=O)c1ccc(NC(=O)NCc2cccnc2)cc1 [3-{4-[(2,2-dimethylpropyl)sulfamoyl]phenyl}-1-(pyridin-3-ylmethyl)urea]
IC50 [1]: 159 nM
IC50 [2]: 17 nM

SMILES: Cc1cccc(NS(=O)(=O)c2ccc(NC(=O)NCc3cccnc3)cc2)c1C [3-{4-[(2,3-dimethylphenyl)sulfamoyl]phenyl}-1-(pyridin-3-ylmethyl)urea]
IC50 [1]: 74 nM
IC50 [2]: 0.9 nM

SMILES: COc1ccc(S(=O)(=O)c2ccc(NC(=O)NCc3cccnc3)cc2)c(OC)c1 [3-{4-[(2,4-dimethoxybenzene)sulfonyl]phenyl}-1-(pyridin-3-ylmethyl)urea]
IC50 [1]: 47 nM
IC50 [2]: 5 nM

SMILES: COc1ccc(NS(=O)(=O)c2ccc(NC(=O)NCc3cccnc3)cc2)c(OC)c1 [3-{4-[(2,4-dimethoxyphenyl)sulfamoyl]phenyl}-1-(pyridin-3-ylmethyl)urea]
IC50 [1]: 109 nM
IC50 [2]: 3 nM

SMILES: COc1cc(F)c(S(=O)(=O)c2ccc(NC(=O)NCc3cccnc3)cc2)cc1F [3-{4-[(2,5-difluoro-4-methoxybenzene)sulfonyl]phenyl}-1-(pyridin-3-ylmethyl)urea]
IC50 [1]: 105 nM
IC50 [2]: 4 nM

SMILES: COc1ccc(OC)c(NS(=O)(=O)c2ccc(NC(=O)NCc3cccnc3)cc2)c1 [3-{4-[(2,5-dimethoxyphenyl)sulfamoyl]phenyl}-1-(pyridin-3-ylmethyl)urea]
IC50 [1]: 4 nM
IC50 [2]: 1.2 nM

SMILES: Cc1ccc(C)c(NS(=O)(=O)c2ccc(NC(=O)NCc3cccnc3)cc2)c1 [3-{4-[(2,5-dimethylphenyl)sulfamoyl]phenyl}-1-(pyridin-3-ylmethyl)urea]
IC50 [1]: 116 nM
IC50 [2]: 6 nM

SMILES: COc1cccc(OC)c1S(=O)(=O)c1ccc(NC(=O)NCc2cccnc2)cc1 [3-{4-[(2,6-dimethoxybenzene)sulfonyl]phenyl}-1-(pyridin-3-ylmethyl)urea]
IC50 [1]: 26 nM
IC50 [2]: 7 nM

SMILES: Cc1cccc(C)c1S(=O)(=O)c1ccc(NC(=O)NCc2cccnc2)cc1 [3-{4-[(2,6-dimethylbenzene)sulfonyl]phenyl}-1-(pyridin-3-ylmethyl)urea]
IC50 [1]: 387 nM
IC50 [2]: 8 nM

SMILES: CC(=O)c1ccccc1S(=O)(=O)c1ccc(NC(=O)NCc2cccnc2)cc1 [3-{4-[(2-acetylbenzene)sulfonyl]phenyl}-1-(pyridin-3-ylmethyl)urea]
IC50 [1]: 326 nM
IC50 [2]: 2 nM

SMILES: O=C(NCc1cccnc1)Nc1ccc(S(=O)(=O)Nc2ccccc2Br)cc1 [3-{4-[(2-bromophenyl)sulfamoyl]phenyl}-1-(pyridin-3-ylmethyl)urea]
IC50 [1]: 24 nM
IC50 [2]: 2 nM

Further lines, results first:

IC50 [1]: 6 nM
IC50 [2]: 3 nM
SMILES: CC(C)c1ccc(S(=O)(=O)c2ccc(NC(=O)NCc3cccnc3)cc2)c(Cl)n1 [3-{4-[2-chloro-6-(propan-2-yl)pyridine-3-sulfonyl]phenyl}-1-(pyridin-3-ylmethyl)urea]

IC50 [1]: 446 nM
IC50 [2]: 1 nM
SMILES: O=C(NCc1cccnc1)Nc1ccc(S(=O)(=O)c2cccc(Cl)c2Cl)cc1 [3-{4-[(2,3-dichlorobenzene)sulfonyl]phenyl}-1-(pyridin-3-ylmethyl)urea]

IC50 [1]: 30 nM
IC50 [2]: 2 nM
SMILES: O=C(NCc1cccnc1)Nc1ccc(S(=O)(=O)Nc2cccc(Cl)c2Cl)cc1 [3-{4-[(2,3-dichlorophenyl)sulfamoyl]phenyl}-1-(pyridin-3-ylmethyl)urea]

IC50 [1]: 546 nM
IC50 [2]: 4 nM
SMILES: O=C(NCc1cccnc1)Nc1ccc(S(=O)(=O)c2cccc(F)c2F)cc1 [3-{4-[(2,3-difluorobenzene)sulfonyl]phenyl}-1-(pyridin-3-ylmethyl)urea]

IC50 [1]: 298 nM
IC50 [2]: 5 nM
SMILES: Cc1cccc(S(=O)(=O)c2ccc(NC(=O)NCc3cccnc3)cc2)c1C [3-{4-[(2,3-dimethylbenzene)sulfonyl]phenyl}-1-(pyridin-3-ylmethyl)urea]

IC50 [1]: 827 nM
IC50 [2]: 4 nM
SMILES: O=C(NCc1cccnc1)Nc1ccc(S(=O)(=O)c2ccc(Cl)cc2Cl)cc1 [3-{4-[(2,4-dichlorobenzene)sulfonyl]phenyl}-1-(pyridin-3-ylmethyl)urea]

IC50 [1]: 189 nM
IC50 [2]: 3 nM
SMILES: O=C(NCc1cccnc1)Nc1ccc(S(=O)(=O)Nc2ccc(Cl)cc2Cl)cc1 [3-{4-[(2,4-dichlorophenyl)sulfamoyl]phenyl]-1-(pyridin-3-ylmethyl)urea]

IC50 [1]: 344 nM
IC50 [2]: 1 nM
SMILES: O=C(NCc1cccnc1)Nc1ccc(S(=O)(=O)c2ccc(F)cc2F)cc1 [3-{4-[(2,4-difluorobenzene)sulfonyl]phenyl}-1-(pyridin-3-ylmethyl)urea]

IC50 [1]: 967 nM
IC50 [2]: 18 nM
SMILES: Cc1ccc(S(=O)(=O)c2ccc(NC(=O)NCc3cccnc3)cc2)c(C)c1 [3-{4-[(2,4-dimethylbenzene)sulfonyl]phenyl}-1-(pyridin-3-ylmethyl)urea]

IC50 [1]: 652 nM
IC50 [2]: 6 nM
SMILES: O=C(NCc1cccnc1)Nc1ccc(S(=O)(=O)c2cc(Cl)ccc2Cl)cc1 [3-{4-[(2,5-dichlorobenzene)sulfonyl]phenyl}-1-(pyridin-3-ylmethyl)urea]

IC50 [1]: 403 nM
IC50 [2]: 4 nM
SMILES: O=C(NCc1cccnc1)Nc1ccc(S(=O)(=O)c2cc(F)ccc2F)cc1 [3-{4-[(2,5-difluorobenzene)sulfonyl]phenyl}-1-(pyridin-3-ylmethyl)urea]

IC50 [1]: 7 nM
IC50 [2]: 1 nM
SMILES: COc1ccc(OC)c(S(=O)(=O)c2ccc(NC(=O)NCc3cccnc3)cc2)c1 [3-{4-[(2,5-dimethoxybenzene)sulfonyl]phenyl}-1-(pyridin-3-ylmethyl)urea]

IC50 [1]: 473 nM
IC50 [2]: 14 nM
SMILES: Cc1ccc(C)c(S(=O)(=O)c2ccc(NC(=O)NCc3cccnc3)cc2)c1 [3-{4-[(2,5-dimethylbenzene)sulfonyl]phenyl}-1-(pyridin-3-ylmethyl)urea]

IC50 [1]: 250 nM
IC50 [2]: 6 nM
SMILES: O=C(NCc1cccnc1)Nc1ccc(S(=O)(=O)c2ccccc2Br)cc1 [3-{4-[(2-bromobenzene)sulfonyl]phenyl}-1-(pyridin-3-ylmethyl)urea]

IC50 [1]: 36 nM
IC50 [2]: 0.9 nM
SMILES: O=C(NCc1cccnc1)Nc1ccc(S(=O)(=O)Nc2ccc(F)cc2Cl)cc1 [3-{4-[(2-chloro-4-fluorophenyl)sulfamoyl]phenyl}-1-(pyridin-3-ylmethyl)urea]

Reference: patent publication US11279687B2, “Compounds and compositions for the inhibition of NAMPT” (Valo Health, Inc., priority 2010, dated 2022)
